From patent US8853174B2, “Agent for preventing or ameliorating skin aging” (Kao Corporation, priority 2008, dated 2014)

Test system: Human skin fibroblasts
Assay: Measurement of contraction force generated by cells (fibroblast-embedded collagen gel culture system)
Format: cell-based
Settings: for enhancement in the contraction force generated by fibroblasts (in words): 3 μM; for Mean value of contraction force generated by cells: Test Example 1, human skin fibroblasts in collagen gel, final concentration 3 μM

| Compound | enhancement in the contraction force generated by fibroblasts (in words) | Mean value of contraction force generated by cells |
| --- | --- | --- |
| C/C=C(\C)C(=O)O[C@H]1[C@H](OC(C)=O)[C@]2(CO)[C@H](O)C[C@]3(C)C(=CC[C@@H]4[C@@]5(C)CC[C@H](O[C@@H]6O[C@H](C(=O)O)[C@@H](O[C@@H]7O[C@H](CO)[C@@H](O)[C@H](O)[C@H]7O)[C@H](O)[C@H]6O[C@@H]6O[C@H](CO)[C@@H](O)[C@H](O)[C@H]6O)[C@](C)(CO)[C@@H]5CC[C@]43C)[C@@H]2CC1(C)C [Escin Ia] | no enhancement | 0.0 dyne |
| C/C=C(/C)C(=O)O[C@H]1[C@H](OC(C)=O)[C@]2(CO)[C@H](O)C[C@]3(C)C(=CC[C@@H]4[C@@]5(C)CC[C@H](O[C@@H]6O[C@H](C(=O)O)[C@@H](O[C@@H]7O[C@H](CO)[C@@H](O)[C@H](O)[C@H]7O)[C@H](O)[C@H]6O[C@@H]6O[C@H](CO)[C@@H](O)[C@H](O)[C@H]6O)[C@](C)(CO)[C@@H]5CC[C@]43C)[C@@H]2CC1(C)C [Escin Ib] | no enhancement | 0.0 dyne |
